# Literature values, collected in patent US20240423899A1, “LONGEVITY MOISTURIZING CREAM” (Wellbeam Consumer Health Intermediate, LLC, priority 2023, published 2024).
# Test system: skin
# Details: topical application
compound,measurement,value
C=C[C@@](C)(/C=C/c1ccc(O)cc1)CCC=C(C)C [bakuchiol],irritating effect on the skin,no irritating effect
same,"lines and wrinkles, pigmentation, elasticity, firmness, and overall reduction in photo-damage",significant improvement
